# According to PMC6923382, “Small molecules that inhibit TNF signalling by stabilising an asymmetric form of the trimer” (Nature Communications, 2019):
# “And” between values parts separate entries of the source, which are not always exact repeats. Equal entries are not always repeated.
# Columns and labels:
# Mouse TNF superfamily = test: Thermal denaturation, mouse TNF superfamily; format: binding; conditions: 100 µM compound, 0.1 mg/mL sample; single experiment
# Description: A fluorescence probed thermal denaturation assay was performed to assess the effect of the compounds on the thermal stability of TNF (or other members of the TNF family) as a measure of compound binding. The reaction mixture contained 5 µL of 30× SYPRO® Orange dye (Invitrogen) and 5 µL of TNF (at 1 mg/mL), 37.5 μL PBS, pH 7.4 and 2.5 μL of compound (at 2 mM in DMSO). The mixture (10 µL) was dispensed in quadruplicate into a 384 PCR optical well plate and was run on a 7900HT Fast Real-Time PCR System ([…]). The PCR System heating device was set at 20 °C to 99 °C with a ramp rate of 1.1 °C min^−1; fluorescence changes in the wells were monitored by a CCD device. The fluorescence intensity increase was plotted as a function of temperature and the Tm calculated as the midpoint of this denaturation curve (determined as the point of inflection).
# Compound based thermal stability increase (oC)
# 100 µM compound 0.1 mg/mL sample […]
# compared to human TNF. Human proteins were provided through a collaboration with Beryllium. Data from a single experiment. […]
# compared to mouse TNF. Mouse proteins were purchased from R&D Systems. (Note: No Tm for Lymphotoxin (LTa) was detected in this assay making a change in Tm unmeasurable).
# Data from a single experiment.
# (also on this page, place not known: 16.0Thermal 10Thermal stability difference (oC) stability increase (oC))
# Balb/c mice (CAIA model) = test: Collagen antibody induced arthritis (CAIA) model; format: in vivo, mouse; design: key to Daily arthritis score: 0 = no arthritis, 3 = wrist/ankle, pad and digits affected; conditions: Ab501 i.v. then s.c.; for Daily arthritis score: individual mice, UCB-9260 150 mg/kg po bid
# Description: Ab501 (in-house anti-mouse TNF antibody, […]) was administered intravenously 6 h post-LPS administration followed by three further doses administered subcutaneously at 48-h intervals. Animals were scored for signs of arthritis and weighed daily. The following scoring system was used for signs of arthritis: 0-no arthritis, 1-wrist/ankle affected, 2-wrist/ankle and pad affected and 3-wrist/ankle, pad, and digits affected. Data shown as the mean ± standard error of arthritis clinical score for the treatment group. Statistical significance (*p < 0.05, **p < 0.01) was determined using one-way ANOVA with Dunnett’s multiple comparison test.
# Mouse free fraction = format: in vitro ADME; conditions: read-out: Mouse free fraction (Fu)
# TNF [1] = molecular target: T1, TNF (Homo sapiens, UniProt P01375); test: TNF reporter gene assay HEK-293, human TNF; format: cell-based; design: stabilise an asymmetrical form of the soluble TNF trimer
# Description: Stimulation of HEK-293 cells by TNF leads to activation of the NF-κB pathway. The HEK-Blue^TM CD40L SEAP (secreted embryonic alkaline phosphatase) reporter cell line used to determine TNF activity (InvivoGen, #hkb-CD40, cells were described as mycoplasma free when purchased and were tested using Mycoalert [Lonza] after each batch of assay vial preparation). […] Cells were added to the compound/stimulus mixture and further incubated for 18 h. SEAP was measured using the colorimetric substrate HEK-Blue Detect^TM or QUANTI-Blue^TM from InvivoGen. […] The IC50 was determined as the point of inflexion between the fitted minimum and maximum of the compound dose response curve, calculated using 4PL fitted curve. Mean IC50s are reported as a mean of at least two experiments.
# Target sequence in this assay (P01375 77-233 limits assumed): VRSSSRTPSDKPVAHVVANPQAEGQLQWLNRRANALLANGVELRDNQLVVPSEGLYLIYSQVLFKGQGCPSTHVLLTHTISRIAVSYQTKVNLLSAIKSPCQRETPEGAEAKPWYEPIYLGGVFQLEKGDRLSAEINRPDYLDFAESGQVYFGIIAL
# TNF [2] = molecular target: T1, TNF; test: TNF L929 cytotoxicity assay, human TNF; format: cell-based; design: stabilise an asymmetrical form of the soluble TNF trimer
# Description: TNF (human or mouse) kills L929 cells which have been compromised by incubation with a sub-lethal concentration of actinomycin D, and this effect is inhibited with TNF biologics. Compounds were titrated in DMSO, and then pre-incubated with human or mouse TNF for 1 h. […] L929 cytotoxicity was measured by the addition of CellTitreGlo (Promega). Luminescence was measured after an incubation of at least 20 min in the dark. Percentage inhibition was calculated between unstimulated wells (maximum signal), and wells with TNF, DMSO and actinomycin D (minimum signal). The IC50 was calculated as the point of inflexion for a 4PL fitted curve. Mean IC50s are reported as a mean of at least two experiments.
# Target sequence in this assay (P01375 77-233 limits assumed): as above
# TNF [3] = molecular target: T1, TNF; test: Biacore kinetics of binding; design: Human TNF (CID2043, UniProt P01375 residues 77–233); 6XHis-Smt3 (N, cleaved yes); host or cells: E. coli TOP10; conditions: SPR single-cycle; linked TNF with n-terminal HKH tag; read-out: KD
# Description: Surface plasmon resonance using a Biacore T100/T200 was used to measure the association rate constant (ka), the dissociation rate constant (kd) and the affinity (KD) of compounds. TNF (VCID 2043 Beryllium) was immobilised to approximately 5 kRU as described above and equilibrated for at least 5 h in HBS P + buffer with 5% DMSO. UCB-6876 was serially diluted from 187.5 µM, flowing over the immobilised TNF at 50 µL/min for 3 min before allowing full dissociation under flow for at least 6 min. […] […] The compounds were allowed to dissociate for 2 h under flow.
# Target sequence in this assay (P01375 with tags, fused parts or gaps): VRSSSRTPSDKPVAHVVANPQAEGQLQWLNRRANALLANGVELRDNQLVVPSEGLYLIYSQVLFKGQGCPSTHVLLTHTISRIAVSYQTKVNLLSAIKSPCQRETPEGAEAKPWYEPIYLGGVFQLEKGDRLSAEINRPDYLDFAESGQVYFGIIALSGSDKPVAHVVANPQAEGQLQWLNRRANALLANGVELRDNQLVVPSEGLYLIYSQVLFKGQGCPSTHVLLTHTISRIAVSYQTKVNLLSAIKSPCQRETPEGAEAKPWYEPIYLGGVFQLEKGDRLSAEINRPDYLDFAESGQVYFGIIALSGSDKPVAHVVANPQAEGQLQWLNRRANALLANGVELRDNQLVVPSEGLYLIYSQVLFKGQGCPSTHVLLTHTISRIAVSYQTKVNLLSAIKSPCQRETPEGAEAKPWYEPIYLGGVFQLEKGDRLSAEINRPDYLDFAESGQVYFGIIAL
smiles,measurement,setting,value
Cc1ccc(C)c(Cn2c(C(O)c3ccncc3)nc3ccc(-c4cnn(C)c4)cc32)c1 (stereo not drawn) [UCB-9260],change in Tm of other mouse TNF superfamily members,Mouse TNF superfamily,negligible effect
same,Daily arthritis score,Balb/c mice (CAIA model); Day 0,0
same,Daily arthritis score,Balb/c mice (CAIA model); Day 1,0
same,Daily arthritis score,Balb/c mice (CAIA model); Day 2,0
same,Daily arthritis score,"Balb/c mice (CAIA model); Day 3, 150 mg/kg",0 and 2 and 1
same,Daily arthritis score,"Balb/c mice (CAIA model); Day 4, 150 mg/kg",3 and 0 and 1 and 2
same,Daily arthritis score,"Balb/c mice (CAIA model); Day 5, 150 mg/kg",2 and 0 and 1 and 3
same,Daily arthritis score,"Balb/c mice (CAIA model); Day 6, 150 mg/kg",1 and 0 and 2 and 3
same,Daily arthritis score,"Balb/c mice (CAIA model); Day 7, 150 mg/kg",0 and 2 and 3 and 1
same,effect on arthritis clinical score,Balb/c mice (CAIA model); UCB-9260 150 mg/kg po bid from 6 h after LPS,significant reduction of the clinical score
same,fraction unbound,Mouse free fraction,0.024
same,IC50,TNF [1],202 nM
same,inhibition of wild-type TNF,"TNF [1]; 10 pM wild-type TNF, HEK NFκΒ reporter",inhibited
same,Luminescence units,TNF [2]; compound -logM 4.6,12619 Luminescence units
same,Luminescence units,TNF [2]; compound -logM 5.08,13471 Luminescence units
same,Luminescence units,TNF [2]; compound -logM 5.56,13691 Luminescence units
same,Luminescence units,TNF [2]; compound -logM 6.03,12384 Luminescence units
same,Luminescence units,TNF [2]; compound -logM 6.51,8197 Luminescence units
same,Luminescence units,TNF [2]; compound -logM 6.99,7043 Luminescence units
same,Luminescence units,TNF [2]; compound -logM 7.46,6740 Luminescence units
same,Luminescence units,TNF [2]; compound -logM 7.94,4803 Luminescence units
same,Luminescence units,TNF [2]; compound -logM 8.42,3698 Luminescence units
same,Luminescence units,TNF [2]; compound -logM 8.9,3202 Luminescence units
same,Kd,TNF [3],13 nM
